{"source": "a melting point compilation (Tetko et al.; mined from patent text by program, amines drawn as free bases though some values may be those of a salt)"}
{"units": {"melting point": "°C"}}
{"smiles": "Cc1nsc(NC(=O)Cc2ccc(O)c(N)c2)c1Cl", "melting point": "239 to 243"}
{"smiles": "COc1ccc(C(=O)/C(=C\\c2ccccc2)C(=O)OC(C)(C)C)c(O)c1", "melting point": "105 to 107"}
{"smiles": "CCOC(=O)c1ccccc1NCC(=O)N(C)c1ccccc1", "melting point": 100}
{"smiles": "CCOC(=O)c1nc(-c2cccc(Br)c2)ns1", "melting point": "87 to 90"}
{"smiles": "O=c1ccc(-c2ccnnc2)c[nH]1", "melting point": "> 250"}
{"smiles": "C=C1CCCc2ccc(OCc3ccc4ccccc4n3)cc21", "melting point": "56 to 58"}
{"smiles": "CC(C)(C)OC(=O)C(C1NC(C(=O)OCc2ccccc2)C2(CCSCC2)S1)N1C(=O)c2ccccc2C1=O", "note": "(centres undefined)", "melting point": "197 to 198"}
{"smiles": "CC1(C)CCC(=Cc2ccc(Cl)cc2)C(=O)C1", "melting point": "85 to 86"}
{"smiles": "COC(=O)CCC/C(C)=C/c1cccc2c1NCCNC2=O", "melting point": "175 to 176"}
{"smiles": "O=Cc1ccc2c(n1)C(=O)C(NC(=O)CCl)=CC2=O", "melting point": "190 to 192"}
{"smiles": "CCN1CCCN(c2cc(Cl)ccc2C)C1=S", "melting point": "111 to 112"}
{"smiles": "COC(=O)C1CCC2C3CCC4=CC(O)CCC4(C)C3C(=O)CC12C", "note": "(centres undefined)", "melting point": "121 to 125"}
{"smiles": "CC(O)CN1CCN(c2cccccc2=O)CC1", "note": "(centres undefined)", "melting point": "92 to 93"}
{"smiles": "Cc1cc(C)cc(CN(C)C(=O)C(Cc2c[nH]c3ccccc23)NC(=O)c2ccccc2)c1", "note": "(centres undefined)", "melting point": "140 to 142"}
{"smiles": "C#CCn1c(-c2c(Cl)cccc2Cl)nc(-c2ccncc2)c1-c1ccc(Cl)cc1", "melting point": "169 to 172"}
{"smiles": "CC(C)OC(=O)c1ccc(Nc2cccc(N3CCCCC3)c2)c([N+](=O)[O-])c1", "melting point": "160 to 161"}
{"smiles": "CCC(C)(C)Nc1c(NCc2cc(C)cc(C)c2)c(=O)c1=O", "melting point": "222 to 224"}
{"smiles": "Cn1c(=O)cc(CCc2cccc(Cl)c2)c2cc(C(O)(c3ccc(Cl)cc3)c3cccnc3)ccc21", "note": "(centres undefined)", "melting point": 115}
{"smiles": "O=C(Nc1ccc(-c2c[nH]c(=O)cn2)cc1)c1ccncc1", "melting point": "303 to 308"}
{"smiles": "Cc1cnccc1Nn1ccc2ccccc21", "melting point": "78 to 80"}
{"smiles": "CC1(C(N)=O)CCC=[N+]1[O-]", "note": "(centres undefined)", "melting point": "134 to 135"}
{"smiles": "Cc1nccn1-c1nc(-c2ccc(Cl)cc2)c(CCCO)o1", "melting point": "128 to 129"}
{"smiles": "C=C(C)C#Cc1cccc2c1C(=O)OC(C)(C)O2", "melting point": 60}
{"smiles": "CCn1cncc1/C=C/c1cn(-c2ccccc2)nc1OCc1ccc(OCc2nc(-c3ccc(CC(=O)O)cc3)oc2C)c(OC)c1", "melting point": "149 to 150"}
{"smiles": "CC12CC(CCCCCO)C3c4ccc(O)cc4CCC3C1CCC2O", "note": "(centres undefined)", "melting point": 152}
{"smiles": "CC(Cc1c[nH]c2ccccc12)(NC(=O)OCC1c2ccccc2-c2ccccc21)C(=O)NC(CO)Cc1ccccc1", "note": "(centres undefined)", "melting point": "89 to 93"}
{"smiles": "Cc1ccccc1C1(CNC(=O)Nc2c(C(C)C)cccc2C(C)C)CCCC1", "melting point": "147 to 150"}
{"smiles": "C1=C(c2ccccc2)SCCS1", "melting point": "54 to 55"}
{"smiles": "Cc1ccc2c(c1)[C@H](Nc1ncnc(NC(=O)C(F)(F)F)n1)[C@@H](C)C2", "melting point": "55 to 58"}
{"smiles": "OCc1cn2c(n1)CN=C(c1ccccc1Cl)c1cc(Cl)ccc1-2", "melting point": "174 to 175"}
{"smiles": "O=c1c(OC(F)F)cn(-c2cccc(C(F)(F)F)c2)nc1-c1ccnn1-c1ccccc1", "melting point": "132 to 134"}
{"smiles": "Fc1ccc2[nH]cc(C3=CCN(CC4COc5ccc6c(c5O4)CCCO6)CC3)c2c1", "note": "(centres undefined)", "melting point": "205 to 206"}
{"smiles": "COc1cc(C2C(C(=O)O)c3ccccc3C(=O)N2C)cc(OC)c1OC", "note": "(centres undefined)", "melting point": "194 to 195"}
{"smiles": "COc1ccc2oc(Cc3c(Cl)cccc3Cl)c(CC#N)c2c1", "melting point": 184}
{"smiles": "O=C(O)CN(C(=O)CCSC(=O)c1ccccc1)[C@H]1CC[C@H](c2ccccc2)CC1", "melting point": "125 to 128"}
{"smiles": "CCCCCCCN(CCc1ccc(OC(C)(C)C(=O)O)cc1)C(=O)Nc1ccc(F)cc1", "melting point": "162 to 164"}
{"smiles": "COc1nc(NN)c2c(OC)c(OC)cc(Cl)c2n1", "melting point": "166 to 168"}
{"smiles": "CC(C)(C)OC(=O)NC(Cc1ccccc1)C(O)CNCC(O)C(Cc1ccc(OCCN2CCOCC2=O)cc1)NC(=O)OC(C)(C)C", "note": "(centres undefined)", "melting point": "108 to 111"}
{"smiles": "O=C(O)Cc1cc(=O)oc2cc(O)ccc12", "melting point": 210}
{"smiles": "Cc1cccc(OC(C)(C)C(=O)O)c1C", "melting point": "71 to 73"}
{"smiles": "COC(=O)CCc1cc(C)cc(NC(C)=O)n1", "melting point": 82}
{"smiles": "CCN(CC)CCSC1=C(C#N)C(c2ccccc2)(c2cccs2)C(=O)N1", "note": "(centres undefined)", "melting point": 165}
{"smiles": "CS(=O)(=O)c1ccc(-c2cnn(-c3ccc(Cl)cc3)c(=O)c2-c2ccc(F)cc2)cc1", "melting point": "214 to 216"}
{"smiles": "CNCC1CN(c2c(F)cc3c(=O)c(C(=O)O)cn(C4CC4)c3c2F)CC1C", "note": "(centres undefined)", "melting point": "252 to 254"}
{"smiles": "CCOC(=O)CSc1nccc(NCCc2ccc(Cl)cc2)n1", "melting point": "58 to 61"}
{"smiles": "Cc1c(Cc2ccccc2)c(=O)oc2cc(OCC3NOC(=O)N3)cc(OCC3NOC(=O)N3)c12", "note": "(centres undefined)", "melting point": "130 to 136"}
{"smiles": "COc1cc(NC(=O)CC23CC4CC(CC(C4)C2)C3)c(C)c(OC)c1", "melting point": "201 to 203"}
{"smiles": "CC(=NOCc1ccc(Cl)s1)C1=C(O)CC(C2CCCSC2)CC1=O", "note": "(centres undefined)", "melting point": "154 to 155"}
{"smiles": "CC(=O)N1C(SCc2ccccc2N(C)C)=NC(=O)C1(C)C", "melting point": "99 to 100"}
{"smiles": "COc1cc(C2CCN(CCO)CC2O)ccc1Nc1ncc2ccc(-c3ccccc3OC)n2n1", "note": "(centres undefined)", "melting point": "88 to 96"}
{"smiles": "CCOc1ccc2c(c1)n(C1CCCC1)c(=O)n2Cc1ccc(NC(=O)N(CC)CC)cc1OC", "melting point": 140}
{"smiles": "CCOC(=O)Cc1c(C)n(Cc2ccccc2)c2cccc(OCc3coc(-c4ccccc4)n3)c12", "melting point": "103 to 105"}
{"smiles": "CCCCCC(=O)CCCC(=O)O", "melting point": "54 to 55"}
{"smiles": "Fc1ccc(Oc2ccc(-c3nc4ccccc4[nH]3)cc2)cc1", "melting point": "243 to 245"}
{"smiles": "NC(=O)c1ccccc1C1c2ccc(Cl)cc2Oc2cc(Cl)ccc21", "melting point": "218 to 220"}
{"smiles": "Cc1cc(-c2ccc(Cl)c(Cl)c2)nc(-n2cnc(-c3ccc(S(N)(=O)=O)cc3)c2)n1", "melting point": 282}
{"smiles": "O=C1N(Cc2ccc(C(F)(F)F)o2)c2ccccc2C12COc1cc3c(cc12)CCO3", "note": "(centres undefined)", "melting point": "64 to 65"}
{"smiles": "CCc1c(C(F)(F)F)nn(-c2ccc(S(N)(=O)=O)nc2)c1-c1ccc(-c2cscn2)c(F)c1", "melting point": "182 to 185"}
{"smiles": "CN1C(=O)C(c2ccc(OC(F)F)cc2)(c2cccc(CCCCC#N)c2)N=C1N", "note": "(centres undefined)", "melting point": 65}
{"smiles": "O=C(CBr)c1ccc(Cl)cc1OCc1ccccc1", "melting point": "75 to 78"}
{"smiles": "COC(=O)c1ccc(Br)cc1COc1ccccc1", "melting point": "69.5 to 70.5"}
{"smiles": "CCOC(=O)CC(C)(O)c1ccc(C2CCCCC2)cc1", "note": "(centres undefined)", "melting point": 45}
{"smiles": "O=C(N[C@@H](CSc1ccccc1)[C@H]1CO1)OCc1ccccc1", "melting point": 61.7}
{"smiles": "O=C(c1ccc(-c2ncc[nH]2)cc1)N1CCN(S(=O)(=O)c2ccc3cc(Cl)ccc3c2)CC1", "melting point": "159 to 161"}
{"smiles": "c1ccc(COc2c(-c3ccccc3)n[nH]c2-c2ccccc2)cc1", "melting point": 152}
{"smiles": "CC(C)(C)n1ncc(SCc2ccc(Oc3ccc(C(F)(F)F)cc3)cc2)c(Cl)c1=O", "melting point": "152 to 156"}
{"smiles": "OCCOC12CC(CO)CNC1Cc1c[nH]c3cccc2c13", "note": "(centres undefined)", "melting point": "198 to 205"}
{"smiles": "CCCCN=C(CS(C)=O)c1cccc(OC)c1O", "note": "(centres undefined)", "melting point": "125 to 127"}
{"smiles": "Cc1ccc(S(=O)(=O)NC[C@@H]2C[C@@H](S)CN2S(=O)(=O)c2ccc3ccccc3c2)cc1", "melting point": 175}
{"smiles": "COc1cc([N+](=O)[O-])ccc1-c1cccc(C(=O)OC(C)(C)C)c1", "melting point": "88 to 88.5"}
{"smiles": "O=[N+]([O-])C=C1CN=C(c2ccccc2)c2cc(Cl)sc2N1", "melting point": "154 to 156"}
{"smiles": "CN(C)S(=O)(=O)Oc1c(I)cc(C(C)(C)C)cc1CN", "melting point": "94 to 95"}
{"smiles": "COc1cccc2[nH]c(=O)n3c(=O)[nH]nc3c12", "melting point": "> 350"}
{"smiles": "CC(C)(C)OC(=O)N1CCN(Cc2ccc(Cl)c(Cl)c2)CC1", "melting point": "75 to 76"}
{"smiles": "CP(C)(=O)COC(=O)c1ccc(-n2c(-c3ccccc3)cc3c2-c2ccccc2CC3)cc1", "melting point": "171 to 173"}
{"smiles": "N[C@H]1CC[C@H](CNc2ncc3ncnc(Nc4ccc(F)c(Cl)c4)c3n2)CC1", "melting point": "166 to 169"}
{"smiles": "Cn1c(C(F)(F)F)cc(=O)n(-c2cc(OC(=O)CC#N)c(Cl)cc2F)c1=O", "melting point": "157 to 160"}
{"smiles": "N=C(O[C@@H]1CCCC=C1Cl)C(Cl)(Cl)Cl", "melting point": "78 to 79"}
{"smiles": "CS(=O)(=O)c1ccc(-c2cnn(-c3ccc(F)c(F)c3)c(=O)c2CCC=C2CC2)cc1", "melting point": "128 to 129"}
{"smiles": "CCCCCCc1ccc(-n2c(-c3ccc(C)cc3)cc(Br)c2-c2ccc(C)cc2)cc1", "melting point": "134 to 135"}
{"smiles": "Cc1cc(C)n(C)c1C(=O)c1ccc(Cl)cc1", "melting point": "94 to 98"}
{"smiles": "COc1ccc(-c2oncc2CCC(=O)O)cc1", "melting point": "101 to 102"}
{"smiles": "CC(C)(C)[Si](C)(C)Oc1ccc2cc3c(cc2c1)C(=O)c1cc2ccc(O[Si](C)(C)C(C)(C)C)cc2cc1C3=O", "melting point": "< 270"}
{"smiles": "COc1ccc(-c2cc(C#N)nnc2-c2ccc(OC)cc2)cc1", "melting point": "113 to 115"}
{"smiles": "Cc1cc(Cl)c(N2C(=O)Cc3cc(C)ccc32)c(Cl)c1", "melting point": "153 to 154"}
{"smiles": "COC(=O)CCC(C(=O)c1cccc(O)c1)c1ccccc1C", "note": "(racemic)", "melting point": "101 to 103"}
{"smiles": "COC(=O)C1CCc2cc(C(=O)c3cccs3)c(O)cc21", "note": "(centres undefined)", "melting point": "183 to 184"}
{"smiles": "CC(C)(C)OC(=O)C(=[N+]=[N-])C(=O)CCl", "melting point": "40 to 41"}
{"smiles": "COc1ccccc1C(C)NCC(=O)Nc1c(C(C)C)cccc1C(C)C", "note": "(centres undefined)", "melting point": "68 to 70"}
{"smiles": "CN1[C@H](Cc2ccc(C(N)=NO)cc2)[C@@H]2C(=O)N(Cc3ccccc3)C(=O)[C@@H]2C1(C)C", "note": "(racemic)", "melting point": "189 to 192"}
{"smiles": "CC(O)c1cc(S(N)(=O)=O)ccc1F", "note": "(centres undefined)", "melting point": "150 to 152"}
{"smiles": "CCc1nc2c(cnn2CC)c(NC2CCOCC2)c1CNC(=O)c1cccc(C(=O)NCc2ccc(OC)c(-c3cccc(CN4CCN(C)CC4)c3)c2)c1", "melting point": "117 to 119"}
{"smiles": "CC(O)Cn1cc(-c2ccccc2)c2ccccc2c1=O", "note": "(centres undefined)", "melting point": 162}
{"smiles": "CCOC(=O)c1c(OCC)nsc1NC(=O)Oc1ccccc1", "melting point": 130}
{"smiles": "Cc1c(-c2ccccc2)nc(C(F)(F)F)oc1=O", "melting point": 70}
{"smiles": "CCCCCCCNC(=O)Nc1ccc(CCc2cc(C(C)(C)C)c(O)c(C(C)(C)C)c2)cc1", "melting point": "151 to 152"}
{"smiles": "O=C1NC(=O)C(c2ccc3cc(-c4ccc(O)c(C56CC7CC(CC(C7)C5)C6)c4)ccc3c2)S1", "note": "(centres undefined)", "melting point": "312 to 314"}
{"smiles": "ClCC=C(c1ccc(Br)cc1)c1cccnc1", "melting point": "156 to 159"}
{"smiles": "CC(C)Sc1c(C(=O)O)sc2cccc(Cl)c12", "melting point": "107 to 109"}
